The text below walks through data of patent publication US11964052B2, “Lipid compounds and lipid nanoparticle compositions” (SUZHOU ABOGEN BIOSCIENCES CO., LTD., priority 2021, dated 2024).

Structures are written as SMILES.

Common to all, as to type: physicochemical
A short description of data set [1]: Lipid nanoparticle size and polydispersity by dynamic light scattering (Malvern Zetasizer Nano ZS). The note with it: LNP of cationic lipid/DSPC/cholesterol/PEG-lipid 50:10:38.5:1.5 with mRNA. Put shortly:
(§1)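 Ribogreen fluorescence quantifies encapsulated mRNA and backscatter (173°) DLS sizes the particles. These are microfluidically mixed four-component LNPs in DPBS after dialysis.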

Data set [2] in a line: Encapsulation efficiency of lipid nanoparticles, Quant-it Ribogreen RNA quantification assay. To be noted: LNP with mRNA. Put shortly:
as §1

A short description of data set [3]: Apparent pKa of LNP formulations, TNS fluorescence assay. The note with it: LNP cationic lipid/DSPC/cholesterol/DMG-PEG 50/10/38.5/1.5 mol %, pH 3 to 9. The method in brief: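 LNPs (cationic lipid/DSPC/cholesterol/DMG-PEG 50/10/38.5/1.5 mol %) at 0.1 mg/ml total lipid in citrate/phosphate/borate buffers, pH 3–9, with TNS added; fluorescence read at room temperature (ex 325, em 435 nm). Apparent pKa is the pH giving half-maximal fluorescence from a sigmoidal fit.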

With `CCCCCCCCCCCCCCCC(=O)OCC(CCCCN(CCO)C1CCCCCC1)COC(=O)CC(CCCCCC)CCCCCCCC` (stereo not drawn) [Compound 87], in data set [1], the polydispersity is reported as 0.044 and the “size (nm)” value was found to be 64.08 nm. For the same compound, in data set [2], the “Encapsulation Efficiency” value was determined as 92.47%. Also, the “Apparant Pka” value in data set [3] stood at 6.372.
The matching figures for `CCCCCCCCCCCCCCCC(=O)OCC(CCCCN(CCO)C1CCCCCCC1)COC(=O)CC(CCCCCC)CCCCCCCC` (stereo not drawn) [Compound 88]: 0.063, 59.54 nm, 92.91% and 6.309.
Take `CCCCC/C=C\C/C=C\CCCCCCCC(=O)OCC(CCCCN(CCO)C1CCC1)COC(=O)CC(CCCCCC)CCCCCCCC` (stereo not drawn) [Compound 89]: in data set [1], the polydispersity was determined as 0.04 and the “size (nm)” value is listed as 69.36 nm. In data set [2], the “Encapsulation Efficiency” value is reported as 92.56%. For the same compound, in data set [3], the “Apparant Pka” value is reported as 6.926.
The matching figures for `CCCCC/C=C\C/C=C\CCCCCCCC(=O)OCC(CCCCN(CCO)C1CCCC1)COC(=O)CC(CCCCCC)CCCCCCCC` (stereo not drawn) [Compound 90]: 0.043, 70.38 nm, 93.02% and 7.024.
The matching figures for `CCCCC/C=C\C/C=C\CCCCCCCC(=O)OCC(CCCCN(CCO)C1CCCCCC1)COC(=O)CC(CCCCCC)CCCCCCCC` (stereo not drawn) [Compound 91]: 0.111, 63.89 nm, 92.11% and 6.608.
The matching figures for `CCCCCCCCCCC(=O)OCC(CCCCN(CCO)C1CCCCCCC1)COC(=O)CC(CCCCCC)CCCCCCCC` (stereo not drawn) [Compound 93]: 0.111, 63.32 nm, 85.30% and 6.377.
`CCCCCCCCCCC(=O)OCC(CCCCN(CC=C(C)C)CCO)COC(=O)CC(CCCCCC)CCCCCCCC` (stereo not drawn) [Compound 94]: in data set [1], the polydispersity was 0.04 and the “size (nm)” value is 77.15 nm. For the same compound, the “Encapsulation Efficiency” value in data set [2] came to 93.93%. Moreover, the “Apparant Pka” value in data set [3] was found to be 6.793.
The matching figures for `CCCCCCCCCCCCCCCC(=O)OCC(CCCCN(CCO)C1CCC1)COC(=O)CC(CCCCCC)CCCCCCCC` (stereo not drawn) [Compound 98]: 0.01, 77.16 nm, 93.58% and 6.997.
The matching figures for `CCCCCCCCCCCCCCCC(=O)OCC(CCCCN(CCO)C1CCCC1)COC(=O)CC(CCCCCC)CCCCCCCC` (stereo not drawn) [Compound 99]: 0.025, 77.25 nm, 94.14% and 7.059.
The matching figures for `CCCCC/C=C\C/C=C\CCCCCCCC(=O)OCC(CCCCN(CCO)C1CCCCC1)COC(=O)CC(CCCCCC)CCCCCCCC` (stereo not drawn) [Compound 100]: 0.055, 64.54 nm, 91.24% and 6.666.
Regarding `CCCCC/C=C\C/C=C\CCCCCCCC(=O)OCC(CCCCN(CCO)C1CCCCCCC1)COC(=O)CC(CCCCCC)CCCCCCCC` (stereo not drawn) [Compound 101], in data set [1], the polydispersity is recorded as 0.111 and the “size (nm)” value came out at 59.51 nm. The “Encapsulation Efficiency” value in data set [2] was 92.79%. Besides, the “Apparant Pka” value in data set [3] was determined as 6.488.
The matching figures for `CCCCCCCCC(CCCCCC)COC(=O)CCOCC(CN(CCC)CCN(CCO)C1CCCCCC1)OCCC(=O)OCC(CCCCCC)CCCCCCCC` (stereo not drawn) [Compound 106]: 0.046, 65.31 nm, 93.17% and 6.035.
